Experimental data taken from patent US20100048714A1, “Methods and Compositions Related to Inhibition of Ceramide Synthesis” (University of Utah Research Foundation, priority 2006, published 2010).

What was measured:
Zucker fa/fa rat = test: Myriocin in non-diabetic insulin resistance model, Zucker fa/fa rat; assay type: in vivo
male Sprague Dawley Rats = test: Insulin tolerance test in dexamethasone-treated rats; assay type: in vivo, rat; conditions: dexamethasone 400 μg/kg IP 24 and 12 hours prior; myriocin 0.3 mg/kg/2 days for 1 week
Method: Following an overnight fast, insulin was injected (20 U, IP) and whole blood glucose was determined by glucometer. Values are presented as the ratio of measured blood glucose to fasting blood glucose.
(§1) To definitively evaluate effects on insulin sensitivity, as well as to distinguish whether the treatment protocols differentially affected glucose uptake in skeletal muscle or hepatic output by the liver, hyperinsulinemic-euglycemic clamps with D-[U-^14C] glucose and 2-deoxy-D-[2,6-^3H] glucose tracers were performed.

DIO mice = test: Myriocin in non-diabetic insulin resistance model, DIO mice; assay type: in vivo
Sprague dawley rats [1] = test: Hyperinsulinemic euglycemic clamps of dexamethasone treated rats; assay type: in vivo, rat; conditions: for Insulin, During Clamp / FFA / Glucose, Before Clamp / Insulin, Before Clamp: plasma, mean ± standard error, n=4; for Insulin, During Clamp: steady state; for FFA: Before Clamp by layout
Method: (A) Sprague-Dawley rats were treated with myriocin (300 μg/Kg, IP, solid bars) or saline (open bars) for two weeks prior to giving administering dexamethasone (40 μg/Kg, IP) or vehicle (5% ethanol) every 12 hours for 36 hours. Animals were euthanized by CO2 inhalation, livers were removed, and ceramide levels were assessed as described in SOM-Methods. Shown are mean ceramide levels+/−S.E.M, n=6 per group. The asterisk denotes that the sample was statistically different from vehicle-treated controls, p<0.05, student's t-test. (B) Livers were obtained as in A, above, and protein and mRNA were extracted as described in SOM-Methods. Levels of transcripts (solid bars) encoding serine palimitoyl transferase isoforms 1 and 2 (SPT1 and SPT2), dihydroceramide synthases (DCS) TL1, UOG, and TRH3, glucosylceramide synthase (GCS), and acid ceramidase (AC) transcripts were obtained by reverse-transcriptase polymerase chain reaction, normalized to β-actin. SPT2 protein levels (white bars) were detected by immunoblotting with an antibody from Cayman Chemicals (Ann Arbor, Mich.) and quantified on a Kodak Image Station 2000R (Rochester, N.Y.). Data represent the fold-change in transcript or protein in dexamethasone-treated animals relative to vehicle controls. […] (C and D) Rats were challenged with glucose (1 g/kg) given intraperitoneally (IP) following treatment with dexamethasone (squares), ethanol carrier (triangles), myriocin (open shapes), or saline (solid shapes) as in A, above. Tail vein blood (3 μl) was sampled for glucose (C)(using the Glucometer Elite from Bayer Corp., Tarrytown, N.Y.) or insulin (D) (using an Elisa kit from Linco Diagnostics, Springfield, Mo.). […] (E-G) Hyperinsulinemic euglycemic clamps were performed on animals (n=4 per group) treated as in A, above, as described in SOM-Methods. Data from animals receiving myriocin are depicted in solid bars. (E) The glucose infusion rate required to maintain normal glycemia during insulin infusion ([…]) was calculated as the average infusion rate during the 60 minute steady state. (F) Hepatic glucose output was estimated by the disappearance of [^14C] glucose from a bolus dose given during the steady state minus the glucose infusion rate. (G) Disappearance of a bolus dose of [^3H] 2-deoxyglucose from the bloodstream was used to estimate the rate of whole body glucose uptake.
as §1
Clamps were performed in conscious unrestrained animals using swivels and tethers (Instech, Plymouth Meeting, Pa.) to allow uninterrupted movement of the animal without disruption of infusion lines. Hyperinsulinemia was initiated by intravenous infusion of insulin (10 mU/kg/min at a flow rate of 4 μL/min). Blood was sampled from arterial lines in 7 minute intervals and analyzed with a Beckman Glucose analyzer II (Beckman Coulter, Fullerton, Calif.). Euglycemia was maintained by variable infusion of 20% dextrose. Steady state was achieved approximately 90 minutes after initiating hyperinsulinemia and maintained for 30 minutes. Glucose infusion rates were calculated as the average glucose infusion rate during the 30 minute steady state. Additional blood samples were taken before initiating hyperinsulinemia and at the end of the clamp for analysis of insulin and free fatty acids.

Sprague dawley rats [2] = test: as above; assay type: in vivo, rat; conditions: plasma, 60 minute steady state, mean ± standard error, n=4
[3] = clamp, dexamethasone with or without myriocin pretreatment
[4] = Dexamethasone-treated (Saline or Myriocin)

CCCCCCC(=O)CCCCCC/C=C/C[C@@H](O)[C@H](O)[C@@](N)(CO)C(=O)O [Myriocin]
glucose homeostasis (Zucker fa/fa rat): improved glucose homeostasis
insulin levels (Zucker fa/fa rat): lowered insulin levels
insulin sensitivity in insulin tolerance tests (male Sprague Dawley Rats): fully negated
glucose homeostasis (DIO mice): improved glucose homeostasis
insulin levels (DIO mice): lowered insulin levels
2-deoxyglucose uptake into skeletal muscle / insulin resistance in skeletal muscle (Sprague dawley rats [1]; [3]): partially blocked
insulin-induced suppression of hepatic glucose output (Sprague dawley rats [1]; [3]): completely prevented
insulin-responsiveness (glucose infusion rate, hepatic glucose output, whole body glucose uptake; FIG. 1E-G) (Sprague dawley rats [1]; clamp, n=4 per group, p<0.05): significantly restored insulin-responsiveness
Insulin, During Clamp (Sprague dawley rats [1]; [4]): 5.4 ± 1.4 ng/mL
Insulin, During Clamp (Sprague dawley rats [1]; Dexamethasone: Control): 6.4 ± 0.5 ng/mL
FFA (Sprague dawley rats [1]; [4]): 176 ± 34 µM
FFA (Sprague dawley rats [1]; Dexamethasone: Control): 258 ± 29 µM
Glucose, Before Clamp (Sprague dawley rats [1]; [4]): 137.0 ± 2.1 mg/dL
Insulin, Before Clamp (Sprague dawley rats [1]; [4]): 2.34 ± 0.49 ng/mL
Glucose, Before Clamp (Sprague dawley rats [1]; Dexamethasone: Control): 123.6 ± 7.7 mg/dL
Insulin, Before Clamp (Sprague dawley rats [1]; Dexamethasone: Control): 2.05 ± 0.25 ng/mL
Glucose, During Clamp (Sprague dawley rats [2]; [4]): 129.3 ± 3.7 mg/dL
Glucose, During Clamp (Sprague dawley rats [2]; Dexamethasone: Control): 130.5 ± 2.9 mg/dL
